ChEMBL document CHEMBL1764989, “Local structural changes, global data views: graphical substructure-activity relationship trailing” (J Med Chem, 2011)

Target: Coagulation factor X (Homo sapiens, UniProt P00742)
Assay: Inhibition of human factor 10a

Sequence of Coagulation factor X (P00742 41-179 limits assumed): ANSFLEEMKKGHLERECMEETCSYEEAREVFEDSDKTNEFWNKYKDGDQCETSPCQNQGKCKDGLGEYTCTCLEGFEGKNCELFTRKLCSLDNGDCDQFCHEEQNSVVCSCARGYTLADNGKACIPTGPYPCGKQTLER
Sequence of Coagulation factor X (P00742 235-488 limits assumed): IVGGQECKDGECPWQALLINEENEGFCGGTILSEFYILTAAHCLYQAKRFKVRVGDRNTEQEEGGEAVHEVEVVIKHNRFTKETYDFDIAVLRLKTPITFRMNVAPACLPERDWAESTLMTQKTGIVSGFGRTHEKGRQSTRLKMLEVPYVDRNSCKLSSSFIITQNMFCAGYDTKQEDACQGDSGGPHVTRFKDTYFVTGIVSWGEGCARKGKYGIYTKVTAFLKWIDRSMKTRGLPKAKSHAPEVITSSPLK

Structure (SMILES) | Ki
COc1ccc(-n2nc(C(F)(F)F)c3c2C(=O)N(c2ccc(N(C)C)cc2)CC3)cc1 | 6.31 nM
COc1ccc(-n2nc(C(F)(F)F)c3c2C(=O)N(c2ccc(-c4ccccc4S(C)(=O)=O)cc2)CC3)cc1 | 0.2 nM
COc1ccc(-n2nc(C(F)(F)F)c3c2C(=O)N(c2ccc(-c4ccccc4CN4CCC(O)C4)cc2)CC3)cc1 (stereo not given) | 0.501 nM
COc1ccc2ccc(S(=O)(=O)NC3CCN(Cc4ccc(O)c(C(=N)N)c4)C3=O)cc2c1 (stereo not given) | 1000 nM
COc1ccc2ccc(S(=O)(=O)NC3CCN(Cc4cc(C(=N)N)ccc4O)C3=O)cc2c1 (stereo not given) | 3.16 nM
COc1ccc(-n2nc(C(F)(F)F)c3c2C(=O)N(c2ccc(NC(C)=O)cc2)CC3)cc1 | 200 nM
COC(=O)COc1ccc(C(=N)N)cc1CN1CCC(NS(=O)(=O)c2ccc3ccc(OC)cc3c2)C1=O (stereo not given) | 7.94 nM
COc1ccc2ccc(S(=O)(=O)NC3CCN(Cc4cc(C(=N)N)ccc4N)C3=O)cc2c1 (stereo not given) | 6.31 nM
COc1ccc2ccc(S(=O)(=O)NC3CCN(Cc4cc(N)cc(C(=N)N)c4)C3=O)cc2c1 (stereo not given) | 1260 nM
COc1ccc2ccc(S(=O)(=O)NC3CCN(Cc4cc(C(=N)N)ccc4OCC(=O)O)C3=O)cc2c1 (stereo not given) | 1260 nM
